Results from PMC8286840, “Identifying SARS-CoV-2 antiviral compounds by screening for small molecule inhibitors of Nsp3 papain-like protease” (Biochemical Journal, 2021).
Where a name gives a salt, the structure may show the parent alone. Read-outs that look alike come from different tables or passages of the source. Where a SMILES comes first, the peptide text is derived from it. The star is where a group is joined. PhAc = O=C(Cc1ccccc1)*

Columns and labels:
[1] = target: T1, SARS-CoV-2 PLpro (nsp3 1564–1878) (Severe acute respiratory syndrome coronavirus 2, UniProt P0DTD1); assay: biochemical; parameters: FRET-quenched peptide (Pro3) cleavage by PLpro, 10 min pre-incubation, slope over 20 min, normalised to no-compound control; conditions: low concentration screen, read-out: % of control remaining
[2] = target: T1, SARS-CoV-2 PLpro (nsp3 1564–1878); assay: biochemical; parameters: FRET-quenched peptide (Pro3) cleavage by PLpro, 10 min pre-incubation, slope over 20 min, normalised to no-compound control; conditions: high concentration screen, read-out: % of control remaining

In the case of `CS(=O)(=O)Nc1ccc([N+](=O)[O-])cc1Oc1ccccc1` [Nimesulide], the remaining activity at 1.25 µM ([1]; Well no.=1043) is reported as 93.4%, the remaining activity at 1.25 µM ([1]; Well no.=1574) is reported as 95.5% and the remaining activity at 3.75 µM ([2]; Well no.=1043) is reported as 96.1%. The remaining activity at 3.75 µM ([2]; Well no.=1574) was 94.3%.

In the case of `COCCOC(=O)C1=C(C)NC(C)=C(C(=O)OC(C)C)C1c1cccc([N+](=O)[O-])c1` (stereo not shown) [Nimodipine], the remaining activity at 1.25 µM ([1]; Well no.=844) is reported as 100%, the remaining activity at 1.25 µM ([1]; Well no.=1717) is reported as 104% and the remaining activity at 3.75 µM ([2]; Well no.=844) is reported as 97.1%. For the same compound, the remaining activity at 3.75 µM ([2]; Well no.=1717) was 101%.

Work on `Cc1ncc(CNC(=O)N(CCCl)N=O)c(N)n1` [Nimustine (hydrochloride)] yielded a remaining activity at 1.25 µM ([1]; Well no.=6836) of 95.8% and a remaining activity at 3.75 µM ([2]; Well no.=6836) of 95.5%.

Work on `Cc1ncc(CNC(=O)N(CCCl)N=O)c(N)n1` [Nimustine hydrochloride] yielded a remaining activity at 1.25 µM ([1]; Well no.=861) of 96.9% and a remaining activity at 3.75 µM ([2]; Well no.=861) of 97.2%.

`COC(=O)C1=C(C)NC(C)=C(C(=O)OCC(C)C)C1c1ccccc1[N+](=O)[O-]` (stereo not shown) [Nisoldipine] gave a remaining activity at 1.25 µM ([1]; Well no.=1796) of 100% and a remaining activity at 3.75 µM ([2]; Well no.=1796) of 100%.

Compound `CNCCC(Oc1ccccc1OC)c1ccccc1` (stereo not shown) [Nisoxetine hydrochloride] has a remaining activity at 1.25 µM ([1]; Well no.=892) of 100% and a remaining activity at 3.75 µM ([2]; Well no.=892) of 99.8%.

Work on `CNCCC(Oc1ccccc1OC)c1ccccc1` (stereo not shown) [Nisoxetine.HCl] yielded a remaining activity at 1.25 µM ([1]; Well no.=1789) of 103% and a remaining activity at 3.75 µM ([2]; Well no.=1789) of 99.5%.

`CC(=O)Oc1ccccc1C(=O)Nc1ncc([N+](=O)[O-])s1` [Nitazoxanide] showed a remaining activity at 1.25 µM ([1]; Well no.=5482) of 101% and a remaining activity at 3.75 µM ([2]; Well no.=5482) of 101%.

For `O=C1CCCC(=O)C1C(=O)c1ccc(C(F)(F)F)cc1[N+](=O)[O-]` [Nitisinone], the remaining activity at 1.25 µM ([1]; Well no.=5887) was 103% and the remaining activity at 3.75 µM ([2]; Well no.=5887) was 103%.

For `CCOC(=O)C1=C(C)NC(C)=C(C(=O)OC)C1c1cccc([N+](=O)[O-])c1` (stereo not shown) [Nitrendipine], the remaining activity at 1.25 µM ([1]; Well no.=796) was 92.2%, the remaining activity at 1.25 µM ([1]; Well no.=1719) was 99.4% and the remaining activity at 3.75 µM ([2]; Well no.=796) was 94.4%. The remaining activity at 3.75 µM ([2]; Well no.=1719) was 103%.

Work on `CNC(=C[N+](=O)[O-])NCCSCc1csc(CN(C)C)n1` [Nizatidine] yielded a remaining activity at 1.25 µM ([1]; Well no.=4628) of 101%, a remaining activity at 1.25 µM ([1]; Well no.=7378) of 99.2% and a remaining activity at 3.75 µM ([2]; Well no.=4628) of 99.2%. For the same compound, the remaining activity at 3.75 µM ([2]; Well no.=7378) was 98.9%.

With `COC(=O)Nc1nc2cc(C(=O)c3cccs3)ccc2[nH]1` [Nocodazole] the remaining activity at 1.25 µM ([1]; Well no.=824) was 99.3%, the remaining activity at 1.25 µM ([1]; Well no.=6258) was 96.5% and the remaining activity at 3.75 µM ([2]; Well no.=824) was 101%. It also gave a remaining activity at 3.75 µM ([2]; Well no.=6258) of 94.1%.

Work on `Cc1ccc2nc(N)[nH]c(=O)c2c1Sc1ccncc1` [Nolatrexed dihydrochloride] yielded a remaining activity at 1.25 µM ([1]; Well no.=6980) of 103% and a remaining activity at 3.75 µM ([2]; Well no.=6980) of 100%.

With `CN1Cc2c(N)cccc2C(c2ccccc2)C1` (stereo not shown) [Nomifensine (maleate)] the remaining activity at 1.25 µM ([1]; Well no.=8395) was 97.9% and the remaining activity at 3.75 µM ([2]; Well no.=8395) was 95.9%.

`CN1Cc2c(N)cccc2C(c2ccccc2)C1` (stereo not shown) [Nomifensine maleate] showed a remaining activity at 1.25 µM ([1]; Well no.=1139) of 94.1% and a remaining activity at 3.75 µM ([2]; Well no.=1139) of 96.7%.

Compound `C[C@@H]1C[C@H]2CC[C@H](O2)[C@H](C)C(=O)O[C@@H](C)C[C@@H]2CC[C@@H](O2)[C@@H](C)C(=O)O[C@H](C)C[C@H]2CC[C@H](O2)[C@H](C)C(=O)O[C@@H](C)C[C@@H]2CC[C@@H](O2)[C@@H](C)C(=O)O1` [Nonactin] has a remaining activity at 1.25 µM ([1]; Well no.=3330) of 95.5% and a remaining activity at 3.75 µM ([2]; Well no.=3330) of 94.1%.

Work on `CCCCCCCCCCCCCCCCCCC(=O)O` [Nonadecanoic acid] yielded a remaining activity at 1.25 µM ([1]; Well no.=4362) of 100% and a remaining activity at 3.75 µM ([2]; Well no.=4362) of 95.6%.

`CCOC(=O)CNC(=O)[C@@H]1CCCN1C(=O)Cc1ccccc1` [Noopept] (PhAc-Pro-Gly-OEt) showed a remaining activity at 1.25 µM ([1]; Well no.=5674) of 104% and a remaining activity at 3.75 µM ([2]; Well no.=5674) of 104%.

`O=C1OC(=O)[C@H]2[C@@H]1[C@@H]1CC[C@H]2O1` [Norcantharidin] showed a remaining activity at 1.25 µM ([1]; Well no.=909) of 100% and a remaining activity at 3.75 µM ([2]; Well no.=909) of 97.7%.

`c1ccc2c3c([nH]c2c1)CNCC3` [Noreleagnine] was tested, and the remaining activity at 1.25 µM ([1]; Well no.=3260) was 101% and the remaining activity at 3.75 µM ([2]; Well no.=3260) was 101%.

With `NC[C@H](O)c1ccc(O)c(O)c1` [Norepinephrine (bitartrate monohydrate)] the remaining activity at 1.25 µM ([1]; Well no.=6517) was 101% and the remaining activity at 3.75 µM ([2]; Well no.=6517) was 98.7%.

Compound `NC[C@H](O)c1ccc(O)c(O)c1` [Norepinephrine] has a remaining activity at 1.25 µM ([1]; Well no.=7015) of 106% and a remaining activity at 3.75 µM ([2]; Well no.=7015) of 103%.

`C#C[C@]1(OC(C)=O)CC[C@H]2[C@@H]3CCC4=CC(=O)CC[C@@H]4[C@H]3CC[C@@]21C` [Norethindrone acetate] showed a remaining activity at 1.25 µM ([1]; Well no.=5895) of 99.8% and a remaining activity at 3.75 µM ([2]; Well no.=5895) of 101%.

For `C#C[C@]1(O)CC[C@H]2[C@@H]3CCC4=CC(=O)CC[C@@H]4[C@H]3CC[C@@]21C` [Norethindrone], the remaining activity at 1.25 µM ([1]; Well no.=2013) was 96.6% and the remaining activity at 3.75 µM ([2]; Well no.=2013) was 96.6%.

`CCn1cc(C(=O)O)c(=O)c2cc(F)c(N3CCNCC3)cc21` [Norfloxacin] was tested, and the remaining activity at 1.25 µM ([1]; Well no.=2043) was 109% and the remaining activity at 3.75 µM ([2]; Well no.=2043) was 105%.

`C/C=C1/CN2CC[C@]34C(=C(C=O)[C@H]1C[C@H]23)Nc1ccccc14` [Norfluorocurarine] was tested, and the remaining activity at 1.25 µM ([1]; Well no.=3165) was 95.2% and the remaining activity at 3.75 µM ([2]; Well no.=3165) was 97.4%.

Compound `c1ccc2c(c1)[nH]c1cnccc12` [Norharmane] has a remaining activity at 1.25 µM ([1]; Well no.=3262) of 101% and a remaining activity at 3.75 µM ([2]; Well no.=3262) of 98.5%.

Compound `CNCCC=C1c2ccccc2CCc2ccccc21` [Nortriptyline hydrochloride] has a remaining activity at 1.25 µM ([1]; Well no.=1097) of 95.3% and a remaining activity at 3.75 µM ([2]; Well no.=1097) of 96.6%.

With `COc1ccc2c(c1OC)C(=O)O[C@@H]2[C@H]1c2c(cc3c(c2OC)OCO3)CCN1C` [Noscapine hydrchloride] the remaining activity at 1.25 µM ([1]; Well no.=957) was 93% and the remaining activity at 3.75 µM ([2]; Well no.=957) was 95.4%.

For `COc1ccc2c(c1OC)C(=O)O[C@@H]2[C@H]1c2c(cc3c(c2OC)OCO3)CCN1C` [Noscapine], the remaining activity at 1.25 µM ([1]; Well no.=6613) was 106% and the remaining activity at 3.75 µM ([2]; Well no.=6613) was 106%.

Work on `COc1cc2c3c(c1OC)-c1ccccc1C[C@H]3N(C)CC2` [Nuciferine] yielded a remaining activity at 1.25 µM ([1]; Well no.=8335) of 95.2% and a remaining activity at 3.75 µM ([2]; Well no.=8335) of 89%.

`COc1ccc(C2=N[C@@H](c3ccc(Cl)cc3)[C@@H](c3ccc(Cl)cc3)N2C(=O)N2CCNC(=O)C2)c(OC(C)C)c1` [Nutlin (3)] showed a remaining activity at 1.25 µM ([1]; Well no.=6356) of 98.9%, a remaining activity at 1.25 µM ([1]; Well no.=7836) of 103% and a remaining activity at 3.75 µM ([2]; Well no.=6356) of 101%. It also gave a remaining activity at 3.75 µM ([2]; Well no.=7836) of 99.3%.
